Results as given in patent US6737383B1, “Herbicidal oxadiazolidines” (priority 1999, dated 2004).

Experiments:
rice = assay: Test B flood test rice; format: in vivo, Oryza sativa
How it was run: (§1)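 Plants were grown to the 2-leaf stage before treatment with test chemical, then held in a greenhouse for twelve to sixteen days. Injury was visually rated against untreated controls on a 0–10 scale, where 0 is no effect and 10 is complete control.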

pigweed = assay: Test B pre/postemergence pigweed; format: in vivo, Amaranthus retroflexus
How it was run: (§2)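 Test chemicals in a non-phytotoxic solvent mixture with surfactant were sprayed preemergence onto planted seeds and postemergence onto plants 2 to 18 cm tall (1- to 4-leaf stage). After twelve to sixteen days in a greenhouse, injury was visually rated against untreated controls from 0 (no effect) to 10 (complete control).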

smallflower flatsedge = assay: Test B flood test smallflower flatsedge; format: in vivo, Cyperus difformis
How it was run: as §1

giant foxtail = assay: Test B pre/postemergence giant foxtail; format: in vivo, Setaria faberii
How it was run: as §2

blackgrass = assay: Test B pre/postemergence blackgrass; format: in vivo, Alopecurus myosuroides
How it was run: as §2

cocklebur = assay: Test B pre/postemergence cocklebur; format: in vivo, Xanthium strumarium
How it was run: as §2

corn = assay: Test B pre/postemergence corn; format: in vivo, Zea mays
How it was run: as §2

velvetleaf = assay: Test B pre/postemergence velvetleaf; format: in vivo, Abutilon theophrasti
How it was run: as §2

wild oat = assay: Test B pre/postemergence wild oat; format: in vivo, Avena fatua
How it was run: as §2

morningglory = assay: Test B pre/postemergence morningglory; format: in vivo, Ipomoea hederacea
How it was run: as §2

surinam grass = assay: Test B pre/postemergence surinam grass; format: in vivo, Brachiaria decumbens
How it was run: as §2

soybean = assay: Test B pre/postemergence soybean; format: in vivo, Glycine max
How it was run: as §2

sugar beet = assay: Test B pre/postemergence sugar beet; format: in vivo, Beta vulgaris
How it was run: as §2

rape = assay: Test B pre/postemergence rape; format: in vivo, Brassica napus
How it was run: as §2

crabgrass = assay: Test B pre/postemergence crabgrass; format: in vivo, Digitaria sanguinalis
How it was run: as §2

wheat = assay: Test B pre/postemergence wheat; format: in vivo, Triticum aestivum
How it was run: as §2

[1] = Postemergence block (flood test species), Rate 250 g/ha, scale 0 to 10
[2] = Postemergence section (flood test species), Rate 500 g/ha, scale of 0 to 10 where 0 is no effect and 10 is complete control
[3] = Rate 125 g/ha, Postemergence section (flood test species), scale 0 to 10, 0 is no effect, 10 is complete control
[4] = Postemergence, Rate 250 g/ha, scale 0 to 10
[5] = Postemergence, Rate 500 g/ha, scale of 0 to 10 where 0 is no effect and 10 is complete control
[6] = Preemergence, Rate 62 g/ha, scale 0 to 10 (0 no effect, 10 complete control)
[7] = Preemergence, Rate 125 g/ha, scale of 0 to 10 where 0 is no effect and 10 is complete control
[8] = Preemergence, Rate 250 g/ha, scale 0 to 10, 0 is no effect, 10 is complete control
[9] = Preemergence, Rate 500 g/ha, scale 0 to 10, 0 is no effect, 10 is complete control
[10] = Rate 125 g/ha, Postemergence, scale 0 to 10, 0 is no effect, 10 is complete control
[11] = Rate 62 g/ha, Postemergence, scale of 0 to 10 where 0 is no effect and 10 is complete control

CC(C)N(C(=O)n1oc(=O)n(C(C)C#N)c1=O)c1ccc(F)cc1F (centres unmarked) [Compound 432]
5: Plant response rating, Crabgrass (crabgrass; [7])
9: Giant foxtail plant response rating (giant foxtail; [9]) | Crabgrass plant response rating (crabgrass; [9])
1: Morningglory plant response rating (morningglory; [4]) | Morningglory plant response rating (morningglory; [10]) | Soybean plant response rating (soybean; [10])
0: Rice plant response rating (rice; [1]) | Rice plant response rating (rice; [2]) | Rice plant response rating (rice; [3]) | Redroot pigweed plant response rating (pigweed; [4]) | Redroot pigweed plant response rating (pigweed; [5]) | Plant response rating, Redroot pigweed (pigweed; [6]) | Plant response rating, Redroot pigweed (pigweed; [7]) | Redroot pigweed plant response rating (pigweed; [8]) | Redroot pigweed plant response rating (pigweed; [9]) | Redroot pigweed plant response rating (pigweed; [10]) | S. Flatsedge plant response rating (smallflower flatsedge; [1]) | S. Flatsedge plant response rating (smallflower flatsedge; [2]) | S. Flatsedge plant response rating (smallflower flatsedge; [3]) | Plant response rating, Giant foxtail (giant foxtail; [6]) | Giant foxtail plant response rating (giant foxtail; [11]) | Plant response rating, Blackgrass (blackgrass; [6]) | Plant response rating, Blackgrass (blackgrass; [7]) | Blackgrass plant response rating (blackgrass; [8]) | Blackgrass plant response rating (blackgrass; [11]) | Cocklebur plant response rating (cocklebur; [4]) | Cocklebur plant response rating (cocklebur; [5]) | Plant response rating, Cocklebur (cocklebur; [6]) | Plant response rating, Cocklebur (cocklebur; [7]) | Cocklebur plant response rating (cocklebur; [8]) | Cocklebur plant response rating (cocklebur; [9]) | Cocklebur plant response rating (cocklebur; [11]) | Cocklebur plant response rating (cocklebur; [10]) | Corn plant response rating (corn; [4]) | Corn plant response rating (corn; [5]) | Plant response rating, Corn (corn; [6]) | Plant response rating, Corn (corn; [7]) | Corn plant response rating (corn; [8]) | Corn plant response rating (corn; [9]) | Corn plant response rating (corn; [11]) | Corn plant response rating (corn; [10]) | Velvetleaf plant response rating (velvetleaf; [4]) | Plant response rating, Velvetleaf (velvetleaf; [6]) | Plant response rating, Velvetleaf (velvetleaf; [7]) | Velvetleaf plant response rating (velvetleaf; [8]) | Velvetleaf plant response rating (velvetleaf; [9]) | Velvetleaf plant response rating (velvetleaf; [10]) | Wild oats plant response rating (wild oat; [4]) | Plant response rating, Wild oats (wild oat; [6]) | Plant response rating, Wild oats (wild oat; [7]) | Wild oats plant response rating (wild oat; [8]) | Wild oats plant response rating (wild oat; [9]) | Wild oats plant response rating (wild oat; [10]) | Plant response rating, Morningglory (morningglory; [6]) | Plant response rating, Morningglory (morningglory; [7]) | Morningglory plant response rating (morningglory; [8]) | Morningglory plant response rating (morningglory; [9]) | B. signalgrass plant response rating (surinam grass; Postemergence, Rate 250 g/ha, scale 0 to 10, 0 no effect, 10 complete control) | B. signalgrass plant response rating (surinam grass; [5]) | Plant response rating, B. signalgrass (surinam grass; [6]) | Plant response rating, B. signalgrass (surinam grass; [7]) | B. signalgrass plant response rating (surinam grass; [8]) | B. signalgrass plant response rating (surinam grass; [9]) | B. signalgrass plant response rating (surinam grass; [11]) | B. signalgrass plant response rating (surinam grass; [10]) | Plant response rating, Soybean (soybean; [6]) | Plant response rating, Soybean (soybean; [7]) | Soybean plant response rating (soybean; [8]) | Soybean plant response rating (soybean; [9]) | Sugarbeets plant response rating (sugar beet; [4]) | Sugarbeets plant response rating (sugar beet; [5]) | Plant response rating, Sugarbeets (sugar beet; [6]) | Plant response rating, Sugarbeets (sugar beet; [7]) | Sugarbeets plant response rating (sugar beet; [8]) | Sugarbeets plant response rating (sugar beet; [9]) | Sugarbeets plant response rating (sugar beet; [10]) | Rape plant response rating (rape; [4]) | Rape plant response rating (rape; [5]) | Plant response rating, Rape (rape; [6]) | Plant response rating, Rape (rape; [7]) | Rape plant response rating (rape; [8]) | Rape plant response rating (rape; [9]) | Rape plant response rating (rape; [10]) | Crabgrass plant response rating (crabgrass; [11]) | Crabgrass plant response rating (crabgrass; [10]) | Wheat plant response rating (wheat; [4]) | Wheat plant response rating (wheat; [5]) | Plant response rating, Wheat (wheat; [6]) | Plant response rating, Wheat (wheat; [7]) | Wheat plant response rating (wheat; [8]) | Wheat plant response rating (wheat; [9]) | Wheat plant response rating (wheat; [10])
2: Plant response rating, Giant foxtail (giant foxtail; [7]) | Blackgrass plant response rating (blackgrass; [9]) | Blackgrass plant response rating (blackgrass; [10]) | Velvetleaf plant response rating (velvetleaf; [5]) | Morningglory plant response rating (morningglory; [5]) | Soybean plant response rating (soybean; [4]) | Soybean plant response rating (soybean; [5])
8: Giant foxtail plant response rating (giant foxtail; [5]) | Crabgrass plant response rating (crabgrass; [8])
4: Blackgrass plant response rating (blackgrass; [4]) | Blackgrass plant response rating (blackgrass; [5])
3: Giant foxtail plant response rating (giant foxtail; [10]) | Wild oats plant response rating (wild oat; [5]) | Plant response rating, Crabgrass (crabgrass; [6])
6: Giant foxtail plant response rating (giant foxtail; [4]) | Giant foxtail plant response rating (giant foxtail; [8]) | Crabgrass plant response rating (crabgrass; [4]) | Crabgrass plant response rating (crabgrass; [5])
